Experimental data from paper PMC8565515, “Dasabuvir Inhibits Human Norovirus Infection in Human Intestinal Enteroids” (mSphere, 2021).
Structures can show the parent of a compound that is named as a salt. Where two headings read alike, the source gives them in different places.

Tests used:
[1] = test system: GII.4 HuNoV; assay: GII.4 HuNoV infection of HIE monolayers, viral genome equivalents by RT-qPCR; format: cell-based, human norovirus; conditions: for activity at 10 µM: Norovirus, 24 h, read-out: (%) HuNoV GEs
[2] = test system: J2 HIE monolayers
[3] = compound 10 μM, n = 1, J2 HIE monolayers, GII.4 HuNoV, 24 hpi, normalized to DMSO control

Structure (SMILES)	activity at 10 µM [1, 3] [%]	(%) Cytotoxicity ([2]; human, 24 h, 10 μM) [%]	(%) HuNoV GEs [1, 3] [%]	(%) Cytotoxicity [2] [%]	activity at 10 µM [1] [%]
Nc1ccn([C@H]2CC[C@@H](CO)O2)c(=O)n1 [Zalcitabine]	71.5	2.88			
Nc1ccn([C@@H]2O[C@H](CO)[C@@H](O)[C@@H]2O)c(=O)n1 [Cytarabine]	31.3	-0.77			
CC(C)[C@H](N)C(=O)OCCOCn1cnc2c(=O)[nH]c(N)nc21 [Valacyclovir hydrochloride]	22.4	0.09			
Clc1ccccc1C(c1ccccc1)(c1ccccc1)n1ccnc1 [Clotrimazole]	159	0.51			
Clc1ccc(Cn2c(CN3CCCC3)nc3ccccc32)cc1 [Clemizole]	85.7	3.11			
CC(=O)OCC(=O)[C@@]1(O)CC[C@H]2[C@@H]3CCC4=CC(=O)C=C[C@]4(C)[C@@]3(Cl)[C@@H](Cl)C[C@@]21C [Dichlorisone Acetate]	59.1	-1.58			
Cc1cn([C@H]2C=C[C@@H](CO)O2)c(=O)[nH]c1=O [Stavudine]	124	2.15			
CN(C)[C@@H]1C(O)=C(C(N)=O)C(=O)[C@@]2(O)C(O)=C3C(=O)c4c(O)cccc4[C@@](C)(O)[C@H]3[C@H](O)[C@@H]12 [Oxytetracycline]	46.2	3.05			
Cc1cc(F)c(C(=O)Nc2cccc(-c3nncn3C(C)C)n2)cc1-n1cnc(C2CC2)c1 [Selonsertib]	48.5	-2.58			
COc1cc(NC(=O)Nc2cccc(CNC(=O)O[C@H]3CCOC3)c2)ccc1-c1cnco1 [Merimepodib]	17	0.74			
Clc1ccc(C(Cn2ccnc2)OCc2ccsc2Cl)c(Cl)c1 (centres unmarked) [Vagistat]	28.3	3.16			
O=C(O[C@@H]1Cc2c(O)cc(O)cc2O[C@@H]1c1cc(O)c(O)c(O)c1)c1cc(O)c(O)c(O)c1 [(-)-Epigallocatechin Gallate]	198	2.41			
COC(=O)C(C)(N)C(C)(C)C (centres unmarked) [6526-0824]			131.97	2.41	
Clc1ccc(COC(Cn2ccnc2)c2ccc(Cl)cc2Cl)c(Cl)c1 (centres unmarked) [Miconazole]	76.8	25.21			
O=C1Nc2ccc(Cl)cc2[C@@](C#CC2CC2)(C(F)(F)F)O1 [Efavirenz]	135	1.69			
CC(=O)OCC(CCn1cnc2cnc(N)nc21)COC(C)=O [Famciclovir]	27.3	0.72			
O[C@H]1[C@H](O)[C@@H](O)[C@H](O)[C@@H](O)[C@H]1O [Inositol]	44.9	2.88			
O=c1[nH]cc(F)c(=O)[nH]1 [Fluorouracil]	27.4	-0.47			
O=c1[nH]c(=O)n([C@H]2C[C@H](O)[C@@H](CO)O2)cc1C(F)(F)F [Trifluridine]	77.1	0.46			
CN(C(=O)CN(CCO)CC(=O)N(C)C(C)(C)Cc1ccccc1)C(C)(C)Cc1ccccc1 [Oxethazaine]	29.4	1.91			
Nc1ncnc2c1ncn2[C@@H]1O[C@H](CO)[C@@H](O)[C@@H]1O [Vidarabine]	51.4	-2.58			
CCOCc1nc2c(N)nc3ccccc3c2n1CC(C)(C)O [Resiquimod]	76.7	2.61			
CC(C)c1nc(CN(C)C(=O)N[C@H](C(=O)N[C@@H](Cc2ccccc2)C[C@H](O)[C@H](Cc2ccccc2)NC(=O)OCc2cncs2)C(C)C)cs1 [Ritonavir]	52.7	1.11			
NCCCNCCCCNCCCN [Spermine]	116	2.77			
CC(C)(C)C(=O)OCOP(=O)(COCCn1cnc2c(N)ncnc21)OCOC(=O)C(C)(C)C [Adefovir dipivoxil]		3.59			67.1
